For data set [1], the system named is AGE-BSA-collagen cross-links. The data set is described as follows: Elisa screening experiment on the breaking of AGE-BSA collagen cross-links. In kind it is biochemical, rat. The following applies: 37° C., 16 hours, OD 450 nm, averages of more than three screening results. On the procedure:
AGE cross-links were prepared in vitro by cross-linking AGE-BSA to rat tail tendon collagen-coated 96 well microtiter plates. ELISA method was used to evaluate the breaking effect of the compounds on AGE cross-links.
Normal Wister rats (body weight 200±20 g) were sacrificed acutely, then the tails were excised, and tail collagen was prepared at a temperature of 4° C. as follows: tail tendon collagen fibrils were taken out, washed with physiological saline, peeled off non-collagen fibril tissue, rinsed with distilled deionized water 3 times, cut into pieces, and immersed in 0.1% acetic acid at 4° C. for one week during which the immersion liquid was shaken frequently. Finally, the immersion liquid was subjected to a centrifuge treatment at 8000 G for 30 minutes, and supernatant collagen solution was collected. After dilution, protein content was measured. 96 well microtiter plates (Costar) were full-well coated with the collagen solution in an amount of 70 μg/well at 4° C. for 24 hours, then the coating solution was discarded. The plates were dried in air under sterile condition, coated with a fresh-keeping film, and finally stored at 4° C. for use.
A solution containing 50 mg/ml of bovine serum albumin BAS (V) (Roch) and 0.5M of glucose in 0.2M PBS (pH 7.4) was incubated at 37° C. under sterile condition for 3-4 months, to thereby form glycosylated BSA, i.e. BSA-AGE. At the same time, non-glycosylated BSA was prepared with glucose-free BSA. Then the BSA-AGE solution was dialyzed against 0.01M PBS (pH 7.4) to be removed of unreacted glucose. Fluorescence scanning (Exi/Em (395/460 nm)) and SDS-PAGE were used to check the formation of BSA-AGE, and protein concentration was determined by the Lowery method.
The tail collagen-coated 96 well microtiter plates were full-well treated with PBS (pH 7.4) for 1 hour to neutralize the acidic collagen. Then the plates were blocked with Superblock (PIERCE) at 37° C. for 1 hour, and washed with PBST (PBS-Tween) three times while shaking for 1 minute for each time of washing. AGE-BSA was diluted in PBS to a concentration required to obtain maximum cross-linking. 100 μl of the AGE-BSA solution was added to wells in the rows labeled as A, B, C, and D of the 96 well plates, and BSA solution of the same concentration was added to wells in the rows labeled as E, F, G, and H. The first three wells in each row were filled with PBS for the reagent blank. The plates were incubated at 37° C. for 4 hours to allow the collagen crosslink, and washed with PBST four times while shaking for 1 minute for each time of washing. Test compounds were diluted in PBS of pH 7.4. A test compound was added to quadruplicate AGE-BSA cross-links wells and quadruplicate BSA wells in an amount of 100 μl/well. PBS was added in an amount of 100 μl/well in the same way as non-breaking contrast. The plates were incubated at 37° C. for 16 hours and washed four times with PBST while shaking for 1 minute for each time of washing. 80 μl/well of Rabbit-anti-BSA antibody (1:500) was added to the wells and the plates were incubated at 37° C. for 50 minutes. After the plates were washed with PBST four times while shaking for 1 minute for each time of washing, 80 μl/well of horseradish peroxidase-labelled-goat-anti-rabbit IgG (1:1000) was added to the wells. The plates were incubated at 37° C. for 50 minutes, and then washed with PBST three times while shaking for 1 minute for each time of washing. 100 μl/well of TMB substrate (3,3′,5,5′-tetramethylbenzidine) was added to the wells. The plates were incubated at room temperature at dark place for 20 minutes. 2M H2SO4 was used to terminate the reaction. Within 10 minutes after the reaction, optical density was read at 450 nm on the BOBRAD Model 550 plate reader with the blank wells of the plates was set to 0.
The average optical density (OD) was calculated for each quadruplicate determination. […]

With `Cc1sc[n+](CC(=O)c2ccccc2)c1C.[Cl-]` [ALT-711, reference compound], the “Breaking rate (decrease % in OD)” value is given as 13.4 ± 6.41% in data set [1] (test compound 0.1 mmol/L) and 15.2 ± 8.43% in data set [1] (test compound 1 mmol/L).
`Cc1sc[n+](CC(=O)OCc2ccccc2)c1C.[Br-]` [Compound 1, 3-benzyloxycarbonylmethyl-4,5-dimethyl-thiazole-3-bromide]: the “Breaking rate (decrease % in OD)” value in data set [1] (test compound 0.1 mmol/L) came to 9.65 ± 3.55%; in data set [1] (test compound 1 mmol/L) it was 10.81 ± 3.86%.
As for `Cc1c(CCO)sc[n+]1CC(=O)OCc1ccccc1.[Br-]` [Compound 2, 3-benzyloxycarbonylmethyl-5-(2-hydroxyethyl)-4-methyl-thiazole-3-bromide], the entries for the “Breaking rate (decrease % in OD)” value in data set [1] (test compound 0.1 mmol/L) and in data set [1] (test compound 1 mmol/L) were 13.5 ± 9.53% and 13.25 ± 10.29%, respectively.
For the compound `Cc1csc[n+]1CC(=O)OCc1ccccc1.[Br-]` [Compound 3, 3-benzyloxycarbonylmethyl-4-methyl-thiazole-3-bromide], the melting point is 217 to 218 °C. Moreover, the “Breaking rate (decrease % in OD)” value in data set [1] (test compound 0.1 mmol/L) came out at 16.16 ± 7.07%. Also, the “Breaking rate (decrease % in OD)” value in data set [1] (test compound 1 mmol/L) is reported as 26.46 ± 18.2%.
The compound `O=C(C[n+]1csc2c1CCCC2)OCc1ccccc1.[Br-]` [Compound 4, 3-benzyloxycarbonylmethyl-4,5,6,7-tetrahydro-benzothiazole-3-bromide] yielded a melting point of 160 to 166 °C. For the same compound, the “Breaking rate (decrease % in OD)” value in data set [1] (test compound 0.1 mmol/L) is listed as 8.45 ± 5.35%. Further, the “Breaking rate (decrease % in OD)” value in data set [1] (test compound 1 mmol/L) turned out to be 7.17 ± 2.40%.
`Cc1csc[n+]1CC(=O)O.[Br-]` [Compound 5, 3-carboxymethyl-4-methyl-thiazole-3-bromide] returned a melting point of 223 to 230 °C.

As usually defined, the melting point is the temperature, or range, at which the solid turns liquid.

(Values after US7799813B2, “Salts of substituted 5-membered azacycle and use thereof in the treatment of diseases related to protein aging” (Beijing Molecule Science and Technology Co., Ltd., priority 2006, dated 2010).)
